For test [1], the system named is Yumm murine melanoma cells. Nature of the test: SKI-I treatment with or without immune checkpoint antibody in mice with untransfected Yumm tumors. It is filed as in vivo. To be noted: mice harboring Yumm tumors, SKI-I combined with anti-PD-1. As to the method:
Animal experiments were conducted in accordance with national and international policies, and our protocol was approved by the Regional Ethics Committee of Midi-Pyrenees. 3.105 of Yumm cell lines (Untransfected, shCtrl, shSK1 or shSK1(2)) were intradermally injected into the flank of 7-week-old C57BL/6 mice (Charles River, L'Arbresle, France). CD8-deficient C57BL/6 mice were a gift from Prof. J. van Meerwijk (INSERM U1043, Toulouse, France). Tumor volume was calculated using a caliper at the indicated days as described (Albinet, Bats et al. 2014). For combination experiments involving shCtrl or shSK1 Yumm cells, mice were challenged intradermally (i.d.) with 3.105 cells on day 0 on their right flank. Mice were then injected i.p. three times with anti-CTLA-4 (200 μg per mouse on D7 and 100 μg per mouse on D10 and D13), and/or with anti-PD-1 or isotype control antibody (200 μg per mouse on D5, D7 and D10). Tumor volumes were measured every 2-3 days. Anti-CTLA-4 (9H10), anti-PD-1 (RMP1-14) and isotype control (2A3) were purchased from BioXcell.
For SKI-I treatment, 5 days after Yumm or MC38 cell implantation, mice were treated or not with 50 mg/kg SKI-I (N′-[(2-hydroxynaphthalen-1-yl)methylidene]-3-(naphthalen-2-yl)-1H-pyrazole-5-carbohydrazide, Enamine) in 50 μl of a mixture of DMSO (10%), Cremophor (5%), Tween-80 (5%) and glucose (80%) (i.p.). […]

In a further test the target is S1PR1 (Mus musculus, UniProt O08530). The conditions noted are these: mice; by inhibiting tumor vascularization; cited from earlier work.
Chain of S1PR1 (O08530 whole entry): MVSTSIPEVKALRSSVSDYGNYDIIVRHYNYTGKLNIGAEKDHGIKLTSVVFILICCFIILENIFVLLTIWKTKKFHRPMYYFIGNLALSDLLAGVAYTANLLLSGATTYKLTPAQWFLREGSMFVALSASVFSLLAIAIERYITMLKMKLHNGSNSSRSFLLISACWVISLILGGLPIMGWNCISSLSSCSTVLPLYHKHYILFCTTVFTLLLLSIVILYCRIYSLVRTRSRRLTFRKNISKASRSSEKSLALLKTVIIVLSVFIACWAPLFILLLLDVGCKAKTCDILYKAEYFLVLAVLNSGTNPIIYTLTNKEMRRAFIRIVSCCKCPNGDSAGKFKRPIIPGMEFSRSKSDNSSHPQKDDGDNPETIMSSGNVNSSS

SMILES strings stand for the structures.

`O=C(N/N=C/c1c(O)ccc2ccccc12)c1cc(-c2ccc3ccccc3c2)n[nH]1` [SKI-I, N′-[(2-hydroxynaphthalen-1-yl)methylidene]-3-(naphthalen-2-yl)-1H-pyrazole-5-carbohydrazide]: the “efficacy of anti-PD-1 (tumor growth)” value in test [1] is “enhanced the efficacy of anti-PD-1”.

As to `CCCCCCCCc1ccc(CCC(N)(CO)CO)cc1` [FTY720], the melanoma progression entry at S1PR1 is recorded as “reduced melanoma progression”.

These data come from patent US10822415B2, “Methods for enhancing the potency of the immune checkpoint inhibitors” (INSERM (INSTITUT NATIONAL DE LA SANTÉ ET DE LA RECHERCHE …, priority 2016, dated 2020).
